Measured values: ChEMBL document CHEMBL1201862, “PubChem BioAssay data set” (2004)
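96-well plates; 48 h exposure; 5 concentrations. Endpoints by linear interpolation between flanking doses. Not reached: highest tested concentration assigned. GI50: concentration for 50% inhibition of growth.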 Activity calls are given as the source filed them. Cut-off read from the data, not from the text of the source: active = GI50 up to about 1.1 µM and inactive = higher.

Tests used:
Assay in all cases: growth of human tumour cells (NCI), 48 h
PC-3 = test system: PC-3
CCRF-CEM = test system: CCRF-CEM
NCI/ADR-RES = test system: NCI/ADR-RES
RXF 393 = test system: RXF 393
SNB-19 = test system: SNB-19
M14 = test system: M14
KM12 = test system: KM12
MDA-MB-231 = test system: MDA-MB-231
K562 = test system: K562
SF-268 = test system: SF-268
MDA-N = test system: MDA-N
T47D = test system: T47D
OVCAR-4 = test system: OVCAR-4
SW-620 = test system: SW-620
SK-MEL-2 = test system: SK-MEL-2
OVCAR-3 = test system: OVCAR-3
SF-295 = test system: SF-295
HCT-116 = test system: HCT-116
BT-549 = test system: BT-549

Row | Compound | GI50 (PC-3) | GI50 (CCRF-CEM) | GI50 (NCI/ADR-RES) | GI50 (RXF 393) | GI50 (SNB-19) | GI50 (M14) | GI50 (KM12) | GI50 (MDA-MB-231) | GI50 (K562) | GI50 (SF-268) | GI50 (MDA-N) | GI50 (T47D) | GI50 (OVCAR-4) | GI50 (SW-620) | GI50 (SK-MEL-2) | GI50 (OVCAR-3) | GI50 (SF-295) | GI50 (HCT-116) | GI50 (BT-549)
1 | COc1ccc(/C=N/Nc2nc3ccccc3c(=O)n2-c2ccccc2)cc1 | > 100 µM (inactive) | > 100 µM (inactive) | > 100 µM (inactive) | > 100 µM (inactive) | > 100 µM (inactive) | > 100 µM (inactive) | > 100 µM (inactive) | > 100 µM (inactive) | > 100 µM (inactive) | > 100 µM (inactive) | > 100 µM (inactive) | > 100 µM (inactive) | > 100 µM (inactive) | > 100 µM (inactive) | > 100 µM (inactive) | > 100 µM (inactive) | > 100 µM (inactive) | > 100 µM (inactive) | –
2 | O=C(/C=C/c1ccccc1)CCC1C(=O)NC(=S)NC1=O | > 100 µM (inactive) | – | > 100 µM (inactive) | > 100 µM (inactive) | > 100 µM (inactive) | > 100 µM (inactive) | – | > 100 µM (inactive) | > 100 µM (inactive) | > 100 µM (inactive) | – | > 100 µM (inactive) | – | > 100 µM (inactive) | > 100 µM (inactive) | > 100 µM (inactive) | > 100 µM (inactive) | > 100 µM (inactive) | > 100 µM (inactive)
3 | CC(=O)N1CC(C)(C)c2c(C)c(O)c(C)c(C)c21 | > 100 µM (inactive) | > 100 µM (inactive) | > 100 µM (inactive) | > 100 µM (inactive) | > 100 µM (inactive) | > 100 µM (inactive) | > 100 µM (inactive) | > 100 µM (inactive) | > 100 µM (inactive) | > 100 µM (inactive) | > 100 µM (inactive) | > 100 µM (inactive) | > 100 µM (inactive) | > 100 µM (inactive) | – | > 100 µM (inactive) | > 100 µM (inactive) | > 100 µM (inactive) | –
4 | CC1(C)[C@@H]2CC[C@@]1(C)[C@H](O)[C@@H]2SCc1ccccc1 | 20.8 µM (inactive) | 19 µM (inactive) | 15.8 µM (inactive) | 18.5 µM (inactive) | 16.8 µM (inactive) | 15 µM (inactive) | 17.8 µM (inactive) | 16.8 µM (inactive) | 25.2 µM (inactive) | 17.3 µM (inactive) | 18.9 µM (inactive) | 24 µM (inactive) | 12.9 µM (inactive) | 25.5 µM (inactive) | 18.1 µM (inactive) | 17.1 µM (inactive) | 18.1 µM (inactive) | 17.2 µM (inactive) | –
5 | O=[N+]([O-])/C=C1\COCc2cc3c(cc21)OCO3 | 12.3 µM (inactive) | 10.6 µM (inactive) | 18 µM (inactive) | 17.9 µM (inactive) | – | 13.4 µM (inactive) | 15.1 µM (inactive) | 14.4 µM (inactive) | 27.2 µM (inactive) | 27.2 µM (inactive) | 18.9 µM (inactive) | 15.9 µM (inactive) | – | 22.1 µM (inactive) | – | 16.8 µM (inactive) | 44 µM (inactive) | 21.2 µM (inactive) | –
6 | CC(CO)CCNc1ncnc2c1ncn2CCC(=O)O (configuration not stated) | > 100 µM (inactive) | > 100 µM (inactive) | > 100 µM (inactive) | > 100 µM (inactive) | > 100 µM (inactive) | > 100 µM (inactive) | > 100 µM (inactive) | > 100 µM (inactive) | > 100 µM (inactive) | > 100 µM (inactive) | > 100 µM (inactive) | > 100 µM (inactive) | > 100 µM (inactive) | > 100 µM (inactive) | – | > 100 µM (inactive) | > 100 µM (inactive) | > 100 µM (inactive) | –
7 | COc1cc(/C=N\O)nc(-c2ccccn2)c1 | 2.43 µM (inactive) | 0.175 µM (active) | 0.36 µM (active) | 0.363 µM (active) | 1.11 µM (active) | 0.259 µM (active) | 0.55 µM (active) | 1.05 µM (active) | 0.399 µM (active) | 0.452 µM (active) | – | 1.18 µM (inactive) | 0.504 µM (active) | 0.664 µM (active) | – | 0.222 µM (active) | 0.339 µM (active) | 0.301 µM (active) | 1.5 µM (inactive)
8 | CCCCCC(/C=N/Nc1ccccc1)C(O)(C(F)(F)F)C(F)(F)F (configuration not stated) | > 100 µM (inactive) | 83.2 µM (inactive) | > 100 µM (inactive) | > 100 µM (inactive) | > 100 µM (inactive) | > 100 µM (inactive) | – | > 100 µM (inactive) | > 100 µM (inactive) | > 100 µM (inactive) | > 100 µM (inactive) | > 100 µM (inactive) | > 100 µM (inactive) | > 100 µM (inactive) | > 100 µM (inactive) | > 100 µM (inactive) | > 100 µM (inactive) | > 100 µM (inactive) | –
9 | CC(=O)c1ccc(NC(=O)/C(CC(=O)c2sc(-c3cccnc3)nc2C)=N/NC(N)=O)cc1 | – | 21.6 µM (inactive) | – | – | 53.6 µM (inactive) | > 100 µM (inactive) | > 100 µM (inactive) | – | > 100 µM (inactive) | 38.7 µM (inactive) | – | – | > 100 µM (inactive) | > 100 µM (inactive) | > 100 µM (inactive) | > 100 µM (inactive) | 41.7 µM (inactive) | 22.6 µM (inactive) | –
10 | O=C1CC(c2ccccc2Cl)Oc2ccccc21 (configuration not stated) | 31.3 µM (inactive) | 33.9 µM (inactive) | 13.1 µM (inactive) | 17.2 µM (inactive) | 34.9 µM (inactive) | 25.9 µM (inactive) | 27 µM (inactive) | 26.9 µM (inactive) | 17.3 µM (inactive) | 37.2 µM (inactive) | – | 43 µM (inactive) | 51.9 µM (inactive) | 25.5 µM (inactive) | 19.9 µM (inactive) | – | 40.6 µM (inactive) | 45 µM (inactive) | –
11 | Nn1c(Cc2ccc(Cl)cc2)n[nH]c1=O | – | > 100 µM (inactive) | > 100 µM (inactive) | > 100 µM (inactive) | > 100 µM (inactive) | > 100 µM (inactive) | > 100 µM (inactive) | > 100 µM (inactive) | > 100 µM (inactive) | > 100 µM (inactive) | > 100 µM (inactive) | > 100 µM (inactive) | > 100 µM (inactive) | > 100 µM (inactive) | > 100 µM (inactive) | > 100 µM (inactive) | > 100 µM (inactive) | > 100 µM (inactive) | –
12 | CCOc1ccccc1NC(=O)CC1SC(Nc2ccc([N+](=O)[O-])cc2)=NC1=O (configuration not stated) | – | 17.2 µM (inactive) | – | 18.1 µM (inactive) | 29.3 µM (inactive) | 23.3 µM (inactive) | 18.7 µM (inactive) | – | – | 29.9 µM (inactive) | – | – | 11.6 µM (inactive) | 23.1 µM (inactive) | 18.3 µM (inactive) | 14.5 µM (inactive) | 18 µM (inactive) | 15.3 µM (inactive) | –
13 | Cc1ccccc1NC(=S)N/N=C1\C(=O)Nc2ccccc21 | > 100 µM (inactive) | > 100 µM (inactive) | > 100 µM (inactive) | > 100 µM (inactive) | > 100 µM (inactive) | > 100 µM (inactive) | > 100 µM (inactive) | > 100 µM (inactive) | > 100 µM (inactive) | 15.1 µM (inactive) | > 100 µM (inactive) | > 100 µM (inactive) | > 100 µM (inactive) | > 100 µM (inactive) | > 100 µM (inactive) | > 100 µM (inactive) | > 100 µM (inactive) | > 100 µM (inactive) | –
14 | N#CI1OC(C(F)(F)F)(C(F)(F)F)c2ccccc21 | 15.8 µM (inactive) | 18.7 µM (inactive) | 15.8 µM (inactive) | 16.8 µM (inactive) | – | 19 µM (inactive) | 17 µM (inactive) | 24 µM (inactive) | 12.1 µM (inactive) | 17.8 µM (inactive) | – | 18.1 µM (inactive) | 15.1 µM (inactive) | > 10 µM (inactive) | 16.1 µM (inactive) | 15.7 µM (inactive) | 45.9 µM (inactive) | 16.4 µM (inactive) | 19.6 µM (inactive)
15 | N=c1oc2cc(O)ccc2cc1C(=O)Nc1ccccn1 | 40.1 µM (inactive) | 27.8 µM (inactive) | 48.8 µM (inactive) | 26.6 µM (inactive) | 92.9 µM (inactive) | 59.7 µM (inactive) | 55 µM (inactive) | 54.3 µM (inactive) | 26.5 µM (inactive) | 65.2 µM (inactive) | – | 32.7 µM (inactive) | 33 µM (inactive) | 77.1 µM (inactive) | 28.8 µM (inactive) | 72.4 µM (inactive) | > 100 µM (inactive) | 56.1 µM (inactive) | 73.6 µM (inactive)
16 | O=C1c2cscc2C(=O)c2c(OCc3ccccc3)ccc(OCc3ccccc3)c21 | 78.5 µM (inactive) | 53.8 µM (inactive) | > 100 µM (inactive) | 75.7 µM (inactive) | > 100 µM (inactive) | > 100 µM (inactive) | > 100 µM (inactive) | > 100 µM (inactive) | 61.1 µM (inactive) | > 100 µM (inactive) | > 100 µM (inactive) | > 100 µM (inactive) | > 100 µM (inactive) | > 100 µM (inactive) | – | > 100 µM (inactive) | > 100 µM (inactive) | 91.6 µM (inactive) | –
17 | C=CCOc1ccc(C2c3c(n[nH]c3O)CC(O)(OCC)C2C(=O)OCC)cc1OC (configuration not stated) | > 100 µM (inactive) | > 100 µM (inactive) | > 100 µM (inactive) | – | > 100 µM (inactive) | > 100 µM (inactive) | > 100 µM (inactive) | > 100 µM (inactive) | – | > 100 µM (inactive) | > 100 µM (inactive) | > 100 µM (inactive) | > 100 µM (inactive) | > 100 µM (inactive) | > 100 µM (inactive) | > 100 µM (inactive) | > 100 µM (inactive) | > 100 µM (inactive) | –
